# According to ChEMBL document CHEMBL1201862, “PubChem BioAssay data set” (2004):
# Values joined by “and” are separate entries in the source; they are usually repeats but may differ in a detail not shown here. Equal values may be shown once.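 Protocol summary: plate cells (96-well), add compound at 5 concentrations, incubate 48 h, interpolate endpoints linearly. GI50 marks 50% less growth.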 Active and inactive are the calls of the source. No stated cut-off is given here; in the data, active = GI50 up to about 1.1 µM and inactive = higher.
# How the values were obtained:
# Assay in all cases: inhibition of tumour cell growth, NCI panel, 48 h
# [1] = tested on: UACC-62
# [2] = tested on: DU-145
# [3] = tested on: MDA-MB-231
# [4] = tested on: HOP-62
# [5] = tested on: A498
# [6] = tested on: HT-29
# [7] = tested on: PC-3
# [8] = tested on: SF-295
# [9] = tested on: HCC 2998
# [10] = tested on: RXF 393
# [11] = tested on: M14
# [12] = tested on: OVCAR-5
# [13] = tested on: OVCAR-3
# [14] = tested on: IGROV-1
# [15] = tested on: SF-539
# [16] = tested on: NCI-H460
# [17] = tested on: Hs-578T
# [18] = tested on: UACC-257
# [19] = tested on: SNB-75
# [20] = tested on: LOX IMVI
# [21] = tested on: NCI-H226
# [22] = tested on: UO-31
# [23] = tested on: SK-OV-3
# [24] = tested on: SK-MEL-2
# [25] = tested on: MCF7
# [26] = tested on: A549
# [27] = tested on: KM12
# [28] = tested on: NCI-H23
# [29] = tested on: SF-268
# [30] = tested on: SN12C
# [31] = tested on: MDA-N
# [32] = tested on: COLO 205
# [33] = tested on: T47D
# [34] = tested on: CCRF-CEM
# [35] = tested on: MOLT-4
# [36] = tested on: HCT-116
# [37] = tested on: NCI/ADR-RES
# [38] = tested on: SNB-19
structure (smiles),measurement,setting,value
Cc1cc(O)c2c(c1)C(=O)C=CC2=O [RAMENTACEONE],GI50,[1],4.72 µM (inactive) and 7.38 µM (inactive)
same,GI50,[2],19.7 µM (inactive) and 16.4 µM (inactive)
same,GI50,[3],5.06 µM (inactive) and 9.31 µM (inactive)
same,GI50,[4],19.5 µM (inactive) and 21 µM (inactive)
same,GI50,[5],22 µM (inactive) and 31.4 µM (inactive)
same,GI50,[6],7.05 µM (inactive) and 5.74 µM (inactive)
same,GI50,[7],11.2 µM (inactive) and 17.7 µM (inactive)
same,GI50,[8],16.5 µM (inactive) and 17.4 µM (inactive)
same,GI50,[9],11.2 µM (inactive) and 15.6 µM (inactive)
same,GI50,[10],4.41 µM (inactive) and 2.7 µM (inactive)
same,GI50,[11],6.68 µM (inactive) and 8.77 µM (inactive)
same,GI50,[12],19.4 µM (inactive) and 18 µM (inactive)
same,GI50,[13],1.66 µM (inactive) and 2.27 µM (inactive)
same,GI50,[14],14.1 µM (inactive) and 9.38 µM (inactive)
same,GI50,[15],16.9 µM (inactive) and 14.9 µM (inactive)
same,GI50,[16],19.3 µM (inactive) and 16.3 µM (inactive)
same,GI50,[17],19.4 µM (inactive) and 15.7 µM (inactive)
same,GI50,[18],5.25 µM (inactive) and 4.05 µM (inactive)
same,GI50,[19],15.5 µM (inactive) and 16.6 µM (inactive)
same,GI50,[20],3.04 µM (inactive) and 5.55 µM (inactive)
same,GI50,[21],18.6 µM (inactive) and 17.8 µM (inactive)
same,GI50,[22],4.69 µM (inactive) and 2.91 µM (inactive)
same,GI50,[23],27.9 µM (inactive) and 28 µM (inactive)
same,GI50,[24],14.9 µM (inactive) and 19.1 µM (inactive)
same,GI50,[25],7.05 µM (inactive) and 4.79 µM (inactive)
same,GI50,[26],25.4 µM (inactive) and 19.1 µM (inactive)
same,GI50,[27],14.1 µM (inactive) and 16.1 µM (inactive)
same,GI50,[28],8.39 µM (inactive) and 12.4 µM (inactive)
same,GI50,[29],17.7 µM (inactive) and 10.4 µM (inactive)
same,GI50,[30],7.76 µM (inactive) and 12.1 µM (inactive)
same,GI50,[31],2.21 µM (inactive) and 3.56 µM (inactive)
same,GI50,[32],3.92 µM (inactive) and 2.74 µM (inactive)
same,GI50,[33],2.65 µM (inactive) and 3.11 µM (inactive)
same,GI50,[34],121 nM (active) and 212 nM (active)
same,GI50,[35],424 nM (active) and 298 nM (active)
same,GI50,[36],4.34 µM (inactive) and 3.72 µM (inactive)
same,GI50,[37],8.15 µM (inactive) and 15.9 µM (inactive)
same,GI50,[38],20.6 µM (inactive) and 17.1 µM (inactive)
